Test results from publication PMC5825103 (PLoS ONE, 2018).

Key:
[1] = biological target: T1, PR-LBD (Homo sapiens, UniProt P06401); test: filtration radioligand binding (Eurofins Cerep); settings: competition binding; ± SD
T1 construct: PR-LBD (catalogue number 2341) were performed by Eurofins Cerep SA, France; purchased Eurofins Cerep SA, France 2341
T1 sequence (P06401 679-913 limits assumed): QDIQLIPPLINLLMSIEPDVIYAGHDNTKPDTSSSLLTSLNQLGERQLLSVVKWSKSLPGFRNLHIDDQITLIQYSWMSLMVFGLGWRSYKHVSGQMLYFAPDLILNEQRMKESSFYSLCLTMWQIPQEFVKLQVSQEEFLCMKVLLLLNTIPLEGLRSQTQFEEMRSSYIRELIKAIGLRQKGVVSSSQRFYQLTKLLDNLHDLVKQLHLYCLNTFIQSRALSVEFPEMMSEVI
Protocol: Filtration based radioligand binding assays for human GR-LBD (catalogue number 0469), AR-LBD (catalogue number 0933) and PR-LBD (catalogue number 2341) were performed by Eurofins Cerep SA, France.

[2] = plasma exposure in rat urine electrolyte excretion model (satellite animals, population PK); settings: average (90% CI)
Protocol: In the rat urine electrolyte excretion model, satellite pharmacokinetic animals were used with serial plasma sampling to assess drug exposure levels during the study duration. […] Exposure data were analysed using nonlinear mixed effects pharmacokinetic modelling. Based on the final population pharmacokinetic model, the eight hour study window was simulated and mean exposure was retrieved from these simulations. The 90% confidence intervals of the mean exposure levels were obtained by Monte Carlo simulations based on the uncertainty, using the parameter covariance matrix, of pharmacokinetic parameter estimates. 1000 simulations were performed and based on these simulations the 5th, and 95th percentiles were retrieved.

[3] = test system: MR; set-up: method as in PMID 24464876; settings: eplerenone vs spironolactone; cited from earlier work

SMILES	Ki [1] [µM]	Cav,in interval ([2]; oral 3 mg kg^-1, 8 h interval)	Cav,in interval ([2]; oral 10 mg kg^-1, 8 h interval)	Cav,in interval ([2]; oral 30 mg kg^-1, 8 h interval)	Cav,in interval ([2]; oral 100 mg kg^-1, 8 h interval)	reduced receptor potency in vitro compared to spironolactone [3]
CNC(=O)C[C@H]1COc2cc(F)ccc2N1C(=O)c1ccc2c(c1)NC(=O)CO2 [AZD9977, (S)-2-(7-Fluoro-4-(3-oxo-3,4-dihydro-2H-benzo[b][1, 4]oxazine-6-carbonyl)-3,4-dihydro-2H-benzo[b][1, 4]oxazin-3-yl)-N-methylacetamide]	25.1					
COC(=O)[C@@H]1CC2=CC(=O)CC[C@]2(C)[C@@]23O[C@@H]2C[C@@]2(C)[C@@H](CC[C@@]24CCC(=O)O4)[C@H]13 [eplerenone]		0.41 (0.35;0.47) μM	1.4 (1.2;1.6) μM	4.1 (3.6;4.7) μM	13.6 (11.8;15.6) μM	10–20 fold
